According to US5242937A, “Topically active ocular thiadiazole sulfonamide carbonic anhydrase inhibitors” (Research Corporation Technologies, Inc., priority 1990, dated 1993):
≈ marks a conversion by molar mass, not a printed value. One block for each molecule: values may come before it.

Assays:
[1] = Partition coefficients (PC), organic solvent : pH=7.4 phosphate buffer; format: physicochemical; settings: for PC (CHCl3 : buffer): chloroform : pH=7.4 phosphate buffer; for PC (ether: buffer): diethyl ether : pH=7.4 phosphate buffer
Experimental: (§1) In these examples the general methodology for testing these compounds is as follows. Melting point (M.P.) is assessed using a standard Fisher-Johns apparatus. Quantitative analysis of drug concentrations is carried out using either an enzymatic assay or by high performance liquid chromatography (HPLC). The enzymatic assay is a modification of Maren's micromethod, J. Pharmacol. Exp. Ther., 130:26-29, 1960. Essentially, a reaction volume of 0.8 mL, containing a carbonate/bicarbonate buffer, phenol red, purified carbonic anhydrase, and inhibitor is maintained at 0° degrees and saturation with CO2 by constant bubbling. The time required for acidification to a color change endpoint is monitored as the dependent variable. Carbonic anhydrase inhibitors increase reaction time in proportion to their concentrations over a useful range. The HPLC analysis is performed using reverse phase chromatography (C18) and gradient elution. At a flow rate of 2mL/min, initial mobile phase composition is 95% A, 5% B, where A is 50 mM phosphate buffer, pH=2, and B is CH3 OH. This composition is altered in a linear fashion over 12 minutes to a final composition of 5:95, A:B, v:v. Capacity factor (k') is determined using the relationship k'=([…] -Vo)/Vo where Ve is the elution volume of the analyte of interest and Vo is the void volume of the column. HPLC analysis using photodiode array UV-visible detection (400-200 nm) is also used to assess purity and acquire spectral information.
Partition coefficients (PC) are determined by dissolving test compound in pH=7.4 phosphate buffer (saturated with the appropriate organic solvent) or organic solvent (diethyl ether or chloroform) saturated with buffer. Equal volumes of organic and aqueous solutions are added to test tubes which are then capped and mixed by inversion until equilibrium is achieved. The ratio of drug concentration organic: aqueous is the partition coefficient.

[2] = Solubility in pH=7.4 phosphate buffer (saturated solutions); format: physicochemical; settings: aqueous buffer
Experimental: as §1
Solubility is determined by preparing saturated solutions of test compounds in pH=7.4 phosphate buffer followed by analysis of the solution for compound concentration.

[3] = Corneal permeability rate constant (kin) across freshly excised bovine corneas in vitro; accession rate; format: in vitro ADME; settings: for kin (corneal permeability rate constant): excised bovine corneas, in vitro
Experimental: as §1
(§2) Corneal permeability rate constants (kin) are determined in an in vitro system. Freshly excised bovine corneas are placed on 8 mm tissue culture wells (epithelial surface down) filled with tissue culture medium containing test compound. The well formed by the curvature of the cornea is filled with drug-free medium. Samples of medium are taken from the endothelial side for determination of drug concentrations. The rate constant for drug appearance is kin. Enzyme inhibition is assessed by determination of KI versus carbonic anhydrase II using the enzymatic method. Accession rate is the product of kin and maximum buffer solubility. This is a useful estimate of delivery rate of drug to the anterior chamber of the eye following topical administration.

[4] = system: intraocular pressure (IOP); test: Ocular hypotensive effects following topical administration (Table 2); format: in vivo, New Zealand white rabbits; settings: IOP lowering; for Maximum Topical Effect: one eye, contralateral eye vehicle
Experimental: B.2 Ocular Hypotensive Effects Following Topical Administration
IOP was determined using rabbits familiarized with the Alcon pneumotonometric measurement employed. Drugs were dissolved or suspended in 0.9% saline or a 1% hydroxypropylmethyl-cellulose gel and instilled into one eye. The contralateral eye received the vehicle only, thereby serving as a control. Initial screening was accomplished using measurements every 15-30 minutes for 5-6 hours. Statistical analysis wa then performed using Student's t-test for paired data (two-tailed).

[5] = system: intraocular pressure (IOP); test: Ocular hypotensive effects following systemic administration (Table 1); format: in vivo, New Zealand albino rabbits; settings: subcutaneous, 225 μmol in corn oil, mean (S.D.)
Experimental: B.1 Ocular Hypotensive Effects Following systemic Administration
Compounds are dissolved in corn oil and injected subcutaneously into New Zealand albino rabbits. […] Injection time is defined as t=0. […] Values shown are IOP in mm Hg represented as the mean (S.D.) of n replications. Data are analyzed using Student's t-test for unpaired data. For time points marked with asterisks, p<0.05, which is taken to indicate a difference from vehicle treated controls.

[6] = target: carbonic anhydrase II (Homo sapiens, UniProt P00918); test: Enzyme inhibition, KI versus carbonic anhydrase II (enzymatic micromethod); format: biochemical; settings: 0°
Experimental: as §1, with “Carbonic anhydrase inhibitors increase reaction time in proportion to their concentrations over a useful range.” left out
as §2, with “solubility.” for “solubility. This is a useful estimate of delivery rate of drug to the anterior chamber of the eye following topical administration.”

[7] = topical CAI, IOP lowering; cited from earlier work
[8] = oral administration; cited from earlier work

Compound: Nc1ccc2nc(S(N)(=O)=O)sc2c1 [aminozolamide]
effectiveness in clinical trial [7]: partially effective in clinical trial

Compound: NS(=O)(=O)c1nnc(N2C(=O)C=CC2=O)s1 [Example 3, Maleimidiazolamide]
solubility [2]: 1 mM (≈ 260 µg/mL)
accession rate [3]: 10.8 µM/h
kin (corneal permeability rate constant) [3]: 0.0108 h⁻¹
Duration [4]: 3 h
Time to Peak effect [4]: 60 min
Maximum Topical Effect [4]: -2.0 ± 0.5 mm Hg
Ki [6]: 12 nM

Compound: NS(=O)(=O)c1nnc(N2C(=O)CCC2=O)s1 [Example 2, Succinylimidazolamide]
solubility [2]: 10 mM (≈ 2620 µg/mL)
accession rate [3]: 21 µM/h
kin (corneal permeability rate constant) [3]: 0.0021 h⁻¹
Duration [4]: 2 h
Time to Peak effect [4]: 30 min
Maximum Topical Effect [4]: -2.3 ± 1.7 mm Hg

Compound: CC(=O)Nc1nnc(S(N)(=O)=O)s1 [acetazolamide, 2-acetylamino-1,3,4-thiadiazole-5-sulfonamide]
decrease of IOP [8]: shown to decrease IOP following oral administration

Compound: CCOC(=O)CCCCC(=O)Nc1nnc(S(N)(=O)=O)s1 [Compound 8, ethyladipoylazolamide]
Duration [4]: 2 h
Time to Peak effect [4]: 30 min
Maximum Topical Effect [4]: approx. -1.0 mm Hg

Continued, in another order:

PC (CHCl3 : buffer) [1]: 0.23
PC (ether: buffer) [1]: 0.3
solubility ([2]; unit nm [sic]): 91 mM (≈ 25500 µg/mL)
accession rate [3]: 309 µM/h
Ki [6]: 32 nM
Compound: CCOC(=O)C(=O)Nc1nnc(S(N)(=O)=O)s1 [Example 5, Ethyloxaloylazolamide]
Duration [4]: ≥ 5 h
Time to Peak effect [4]: 75 min
Maximum Topical Effect [4]: -3.0 ± 0.7 mm Hg
IOP ([5]; t=0 min): 18.4(1.9) mm Hg
IOP ([5]; t=20 min): 17.5(2.1) mm Hg
IOP ([5]; t=45 min, * p<0.05 vs vehicle): 15.0(2.6) mm Hg
IOP ([5]; t=60 min, * p<0.05 vs vehicle): 14.5(2.2) mm Hg
IOP ([5]; t=75 min, * p<0.05 vs vehicle): 14.6(5.1) mm Hg
IOP ([5]; t=90 min, * p<0.05 vs vehicle): 17.8(1.7) mm Hg
IOP ([5]; t=110 min, * p<0.05 vs vehicle): 17.3(2.2) mm Hg
IOP ([5]; t=150 min, * p<0.05 vs vehicle): 18.3(1.3) mm Hg

solubility [2]: 0.5 mM (≈ 154 µg/mL)
Compound: NS(=O)(=O)c1nnc(NC(=O)CCCCC(=O)O)s1 [Example 8]

PC (CHCl3 : buffer) [1]: 1.24
PC (ether: buffer) [1]: 0.35
solubility [2]: 5.8 mM (≈ 1790 µg/mL)
accession rate [3]: 91 µM/h
kin (corneal permeability rate constant) [3]: 0.0155 h⁻¹
Compound: CCOC(=O)CCC(=O)Nc1nnc(S(N)(=O)=O)s1 [Example 6, Ethylsuccinylazolamide]
IOP ([5]; t=0 min): 18.3(1.0) mm Hg
IOP ([5]; t=20 min): 17.5(2.0) mm Hg
IOP ([5]; t=45 min, * p<0.05 vs vehicle): 15.4(2.1) mm Hg
IOP ([5]; t=60 min, * p<0.05 vs vehicle): 13.7(1.6) mm Hg
IOP ([5]; t=75 min, * p<0.05 vs vehicle): 12.4(1.9) mm Hg
IOP ([5]; t=90 min, * p<0.05 vs vehicle): 15.1(2.0) mm Hg
IOP ([5]; t=110 min, * p<0.05 vs vehicle): 15.0(1.8) mm Hg
IOP ([5]; t=150 min, * p<0.05 vs vehicle): 16.6(1.6) mm Hg

solubility [2]: > 700 mM
accession rate [3]: ≤ 21 µM/h
kin (corneal permeability rate constant) [3]: 3e-05 h⁻¹
Ki [6]: 8 nM
Compound: NS(=O)(=O)c1nnc(N2C(=O)C(O)C(O)C2=O)s1 (stereo not drawn) [Example 4, Dihydroxysuccinimidazolamide]
Duration [4]: ≥ 6 h
Time to Peak effect [4]: 60 min
Maximum Topical Effect [4]: -4.0 ± 0.7 mm Hg

PC (CHCl3 : buffer) [1]: 3.03
solubility [2]: 0.2 mM (≈ 67.3 µg/mL)
accession rate [3]: 26 µM/h
kin (corneal permeability rate constant) [3]: 0.0512 h⁻¹
Ki ([6]; unit inferred): 60 nM
Compound: CCOC(=O)CCCCC(=O)Nc1nnc(S(N)(=O)=O)s1 [Example 7]
